Columns and labels:
[1] = system: rat; conditions: Subchronic oral toxicity in rodents, fischer, Feed, dose end: 13 week, group: systemic
[2] = system: rat; conditions: Prenatal developmental toxicity study, fischer, Oral, Gavage/Intubation, dose end: 15 GD
[3] = system: rat; conditions: Prenatal developmental toxicity study, wistar, Oral, Water, dose end: 19 GD
[4] = system: mouse; conditions: Subchronic oral toxicity in rodents, b6c3f1, Feed, dose end: 13 week, group: systemic, systemic / organ weight / liver / absolute + systemic / organ weight / liver / relative to body weight + systemic / pathology microscopic / …
[5] = system: rabbit; conditions: Prenatal developmental toxicity study, new zealand white, Oral, Gavage/Intubation, dose end: 18 GD, group: maternal
[6] = system: rat; conditions: Multigenerational reproductive toxicity study, wistar, Oral, Water, dose end: 1 generation
[7] = system: rat; conditions: Sub-acute repeat dose toxicity, sprague dawley, Oral, Gavage/Intubation, dose end: 36 day, group: systemic
[8] = system: rabbit; conditions: Prenatal developmental toxicity study, Oral, Gavage/Intubation, dose end: 19 GD
[9] = system: rat; conditions: Fertility (Segment I), sprague dawley, Oral, Gavage/Intubation, dose end: 1 generation
[10] = system: rat; conditions: Sub-acute repeat dose toxicity, sprague dawley, Oral, Gavage/Intubation, dose end: 21 day, group: systemic
[11] = system: rat; conditions: Subchronic oral toxicity in rodents, sprague dawley, Gavage/Intubation, dose end: 90 day, group: systemic
[12] = system: dog; conditions: Sub-acute repeat dose toxicity, beagle, Oral, Gavage/Intubation, dose end: 5 day, group: systemic
[13] = system: rabbit; conditions: Prenatal developmental toxicity study, new zealand white, Oral, Gavage/Intubation, dose end: 19 GD, group: maternal
[14] = system: dog; conditions: Subchronic oral toxicity in nonrodent, beagle, Gavage/Intubation, dose end: 90 day, group: systemic, systemic / in life observation / clinical signs / emesis + systemic / in life observation / clinical signs / erythema + systemic / in life …
[15] = system: dog; conditions: Sub-acute repeat dose toxicity, beagle, Oral, Gavage/Intubation, dose end: 15 day, group: systemic
[16] = system: rabbit; conditions: Sub-acute repeat dose toxicity, new zealand white, Oral, Gavage/Intubation, dose end: 5 day, group: systemic
[17] = system: rat; conditions: Fertility (Segment I), sprague dawley, Oral, Gavage/Intubation, dose end: 1 generation, group: parental
[18] = system: rat; conditions: Prenatal developmental toxicity study; sprague dawley; Oral; Gavage/Intubation; dose end: 18 GD; group: maternal; systemic / in life observation / body weight / body weight + systemic / in life observation / body weight / body weight gain + systemic / in…
[19] = systemic / clinical chemistry / cholesterol / cholesterol
[20] = group: developmental, developmental / developmental malformation / bone / delayed ossification
[21] = group: developmental, developmental / developmental malformation / bone / delayed ossification + developmental / developmental malformation / bone / supernumerary…
[22] = group: maternal, systemic / in life observation / clinical signs / ocular discharge + systemic / in life observation / clinical signs / red or crusty …
[23] = group: developmental, developmental / developmental malformation / bone / incomplete ossification + developmental / developmental malformation / bone / wavy
[24] = group: maternal, reproductive / reproductive performance / pregnancy / pregnancy + systemic / in life observation / body weight / body weight + systemic / in…
[25] = reproductive / reproductive performance / aborted / aborted + systemic / in life observation / mortality / mortality
[26] = group: offspring, developmental / developmental landmark / eye opening / eye opening + developmental / developmental landmark / incisor eruption / incisor …
[27] = group: offspring, developmental / developmental malformation / bone / kinked
[28] = group: parental, systemic / in life observation / body weight / body weight + systemic / in life observation / body weight / body weight gain + systemic / in…
[29] = group: reproductive, reproductive / reproductive performance / implantations / implantations + reproductive / reproductive performance / resorptions / …
[30] = systemic / in life observation / body weight / body weight gain + systemic / in life observation / body weight / offspring (pup) weight + …
[31] = group: developmental, systemic / in life observation / body weight / fetal weight
[32] = group: maternal, systemic / in life observation / body weight / body weight + systemic / in life observation / food consumption / food consumption + systemic…
[33] = group: maternal, reproductive / reproductive performance / estrous cycle / length
[34] = group: parental, systemic / in life observation / body weight / body weight + systemic / in life observation / clinical signs / [other] + systemic / in life …
[35] = group: parental, systemic / in life observation / clinical signs / altered breathing rate + systemic / in life observation / clinical signs / compulsive …
[36] = systemic / clinical chemistry / alanine aminotransferase (alt/sgpt) / alanine aminotransferase (alt/sgpt) + systemic / clinical chemistry / …
[37] = systemic / organ weight / liver / relative to body weight
[38] = systemic / clinical chemistry / [other] / [other] + systemic / clinical chemistry / aspartate aminotransferase (ast/sgot) / aspartate …
[39] = systemic / organ weight / liver / absolute + systemic / in life observation / clinical signs / salivation
[40] = systemic / in life observation / body weight / body weight + systemic / in life observation / clinical signs / emesis + systemic / in life …
[41] = systemic / in life observation / clinical signs / salivation + systemic / in life observation / clinical signs / emesis
[42] = systemic / in life observation / clinical signs / dialated pupils + systemic / in life observation / food consumption / food consumption
[43] = systemic / clinical chemistry / alanine aminotransferase (alt/sgpt) / alanine aminotransferase (alt/sgpt) + systemic / hematology / platelet…
[44] = systemic / in life observation / body weight / body weight + systemic / clinical chemistry / alanine aminotransferase (alt/sgpt) / alanine …
[45] = systemic / in life observation / body weight / body weight gain + systemic / in life observation / clinical signs / [other] + systemic / in …
[46] = systemic / in life observation / clinical signs / abnormal feces + systemic / in life observation / clinical signs / altered breathing rate
[47] = systemic / in life observation / body weight / body weight + systemic / in life observation / clinical signs / altered breathing rate + …

SMILES: CCCCC(CC)C(=O)O (stereo not given) [2-Ethylhexanoic acid]
- LEL [1, 19]: 61 mg/kg/day
- NEL [1, 19]: < 61 mg/kg/day
- LOAEL ([1]; systemic / organ weight / liver / relative to body weight + systemic / pathology microscopic / liver / hypertrophy): 303 mg/kg/day
- NOAEL ([1]; systemic / organ weight / liver / relative to body weight + systemic / pathology microscopic / liver / hypertrophy + systemic / clinical …): 61 mg/kg/day
- LEL [2, 20]: 250 mg/kg/day
- LOAEL [2, 20]: 250 mg/kg/day
- NEL [2, 21]: 100 mg/kg/day
- NOAEL [2, 21]: 100 mg/kg/day
- NEL ([2]; group: maternal, reproductive / reproductive performance / postimplantation loss / postimplantation loss + reproductive / reproductive performance / …): 250 mg/kg/day
- LEL [2, 22]: 500 mg/kg/day
- LOAEL [2, 22]: 500 mg/kg/day
- NOAEL [2, 22]: 250 mg/kg/day
- LEL [3, 23]: 100 mg/kg/day
- LOAEL [3, 23]: 100 mg/kg/day
- NEL [3, 23]: < 100 mg/kg/day
- NOAEL [3, 23]: < 100 mg/kg/day
- LEL ([3]; group: maternal, reproductive / reproductive performance / pregnancy / pregnancy): 300 mg/kg/day
- LOAEL [3, 24]: > 600 mg/kg/day
- NEL [3, 24]: 100 mg/kg/day
- NOAEL [3, 24]: ≥ 600 mg/kg/day
- LEL [4]: 885 mg/kg/day
- LOAEL [4]: 885 mg/kg/day
- NEL [4]: 180 mg/kg/day
- NOAEL [4]: 180 mg/kg/day
- LEL [5, 25]: 125 mg/kg/day
- LOAEL [5, 25]: 125 mg/kg/day
- NOAEL ([5]; reproductive / reproductive performance / aborted / aborted + systemic / in life observation / mortality / mortality + systemic / in life …): 25 mg/kg/day
- LOAEL [6, 26]: > 600 mg/kg/day
- NOAEL [6, 26]: ≥ 600 mg/kg/day
- LEL [6, 27]: 100 mg/kg/day
- NEL [6, 27]: < 100 mg/kg/day
- LOAEL [6, 28]: > 600 mg/kg/day
- NEL [6, 28]: 100 mg/kg/day
- NOAEL [6, 28]: ≥ 600 mg/kg/day
- LEL ([6]; group: parental, systemic / pathology microscopic / uterus / dilatation + systemic / pathology microscopic / vagina / hyperplasia + systemic / pathology …): 300 mg/kg/day
- LEL [6, 29]: 600 mg/kg/day
- LOAEL [6, 29]: > 600 mg/kg/day
- NOAEL [6, 29]: ≥ 600 mg/kg/day

SMILES: COCCOC[C@H](CC1(C(=O)NC2CCC(C(=O)O)CC2)CCCC1)C(=O)Oc1ccc2c(c1)CCC2 (stereo not given in full) [Candoxatril]
- LOAEL [7, 30]: > 1200 mg/kg/day
- NOAEL [7, 30]: ≥ 1200 mg/kg/day
- NEL ([7]; systemic / in life observation / clinical signs / hyperactivity): < 120 mg/kg/day
- LEL [8, 31]: 1000 mg/kg/day
- LOAEL [8, 31]: > 1000 mg/kg/day
- NOAEL [8, 31]: ≥ 1000 mg/kg/day
- LEL [8, 32]: 1000 mg/kg/day
- LOAEL [8, 32]: > 1000 mg/kg/day
- NEL [8, 32]: 250 mg/kg/day
- NOAEL [8, 32]: ≥ 1000 mg/kg/day

SMILES: CNCc1cc(F)ccc1Oc1ccc(Cl)c(Cl)c1
- LEL [9, 33]: 30 mg/kg/day
- LOAEL [9, 33]: > 60 mg/kg/day
- NEL [9, 33]: 10 mg/kg/day
- NOAEL [9, 33]: ≥ 60 mg/kg/day
- LOAEL [9, 34]: > 60 mg/kg/day
- NOAEL [9, 34]: ≥ 60 mg/kg/day
- LEL [9, 35]: 10 mg/kg/day
- NEL [9, 35]: < 10 mg/kg/day
- LOAEL [10, 36]: > 300 mg/kg/day
- NOAEL [10, 36]: ≥ 300 mg/kg/day
- LEL [10, 37]: 10 mg/kg/day
- NEL [10, 37]: < 10 mg/kg/day
- LOAEL [11, 38]: > 150 mg/kg/day
- NOAEL [11, 38]: ≥ 150 mg/kg/day
- LEL [11, 39]: 10 mg/kg/day
- NEL [11, 39]: < 10 mg/kg/day
- LOAEL [12, 40]: > 10 mg/kg/day
- NOAEL [12, 40]: ≥ 10 mg/kg/day
- LEL [12, 41]: 3 mg/kg/day
- NEL [12, 41]: < 3 mg/kg/day
- LEL ([13]; systemic / in life observation / clinical signs / dialated pupils): 10 mg/kg/day
- LOAEL [13, 42]: > 30 mg/kg/day
- NOAEL [13, 42]: ≥ 30 mg/kg/day
- LEL [14]: 2 mg/kg/day
- LOAEL [14]: > 30 mg/kg/day
- NEL [14]: < 2 mg/kg/day
- NOAEL [14]: ≥ 30 mg/kg/day
- LOAEL [15, 43]: > 60 mg/kg/day
- NOAEL [15, 43]: ≥ 60 mg/kg/day
- LEL [15, 44]: 3 mg/kg/day
- NEL [15, 44]: < 3 mg/kg/day
- LOAEL [16, 45]: > 100 mg/kg/day
- NOAEL [16, 45]: ≥ 100 mg/kg/day
- LEL [16, 46]: 10 mg/kg/day
- NEL [16, 46]: < 10 mg/kg/day
- LOAEL [17, 47]: > 100 mg/kg/day
- NEL [17, 47]: 10 mg/kg/day
- NOAEL [17, 47]: ≥ 100 mg/kg/day
- LEL ([17]; systemic / in life observation / clinical signs / salivation + systemic / in life observation / food consumption / food consumption): 30 mg/kg/day
- LEL [18]: 25 mg/kg/day
- LOAEL [18]: > 50 mg/kg/day
- NOAEL [18]: ≥ 50 mg/kg/day

— EPA's ToxRefDB 2
